Earlier results, collected in patent EP4260848A1, “PHARMACEUTICAL COMPOSITION FOR SOLID DOSAGE FORM CONTAINING NILOTINIB AND PROCESS FOR ITS PREPARATION” (Lotus Pharmaceutical Co., Ltd., priority 2022, dated 2023).
Where a name gives a salt, the structure may show the parent alone.

What was measured:
[1] = not given; remark: listed apart in the source

Structure (SMILES) | aqueous solubility (all solid forms (anhydrates, hydrates, solvates)) | solubility in aqueous solutions (dependence on pH) | pKa1 ([1]; determined) | pKa2 ([1]; estimated)
Cc1cn(-c2cc(NC(=O)c3ccc(C)c(Nc4nccc(-c5cccnc5)n4)c3)cc(C(F)(F)F)c2)cn1 [Nilotinib hydrochloride] | poor aqueous solubility | – | – | –
Cc1cn(-c2cc(NC(=O)c3ccc(C)c(Nc4nccc(-c5cccnc5)n4)c3)cc(C(F)(F)F)c2)cn1 [Nilotinib, 4-methyl-N-[3-(4-methylimidazol-1-yl)-5-(trifluoromethyl)phenyl]-3-[(4-pyridin-3-ylpyrimidin-2-yl)amino]benzamide] | – | decreases with increasing pH | 2.1 | 5.4
